Experimental data: patent publication US5770570A, “Method of delivering a vasoactive intestinal polypeptide, an encapsulated vasoactive intestinal polypeptide, and a method of making the encapsulated vasoactive intestinal polypeptide” (priority 1995, dated 1998)
Values joined by “and” are separate entries in the source; they are usually repeats but may differ in a detail not shown here. Equal values may be shown once. Values belong to the substance of their own block, whether it stands above or below them. Ends that are not written are not given here. * marks the point of attachment. 125I = [125I]*

Experiments:
PG/PC/CH liposomes = assay: Binding of VIP by pre-formed lipid liposomes (PG/PC/CH); conditions: for binding of radiolabeled VIP by liposomes, % of available peptide: liposomes 2.5-45.6 mM Pi, 0.42 nM peptide
Protocol: (§1) Unilaminar phospholipid liposomes were formed using phosphatidylcholine (PC) and phosphatidylglycerol (PG) purified from egg yolk (Sigma). The fatty acid composition of the phospholipids determined by Sigma was: (PC, C16:0), (35%; C18:0, 12%; C18:1, 31%; C18:2, 14%); (PG, C16:0, 30%, C18:0, 13%; C18:1, 30%; C18:2, 16%). The unilamellar liposomes were prepared by reverse-phase evaporation as disclosed in Szoka, Jr., F. and Papahadjopoulos (1978) Proc. Natl. Acad. Sci. USA 75, 4194-4198), from a mixture of PG/PC/CH(cholesterol) (molar ratio 1:4:5) or PC/CH (1:1) dissolved in chloroform.
Peptide was permitted to bind liposome surface in aqueous solution. In organic solvents as in Example I, the peptide will be expressed in as well as on the lipid membranes of liposomes.
The liposomes were the pelleted (12,000×g, 10 min; Beckman centrifuge MICROFUGE®). The supernatant was aspirated and the liposome-associatedradioactivity was measured at 70% efficiency (Beckman model 5500 gamma counter). There was minimal loss of the liposomes in the supernatant, because more than 90% of the inorganic phosphate present in the reaction mixture was recovered in the pellet.
The binding data was corrected for peptide adsorption by the reaction tubes determined in parallel incubations.
Dissociation and saturability data were analyzed by means of Kinetic and Enzfitter (Elsevier Biosoft).
The binding of the VIP to the liposome was determined as follows. Unilamellar lipid liposomes were prepared by reverse evaporation and assayed for binding of radiolabeled VIP, as described above. BSA was included in the assay diluent to saturate nonspecific polypeptide binding sites in the lipid liposomes and the polypropylene surface of the reaction tubes.
(§2) Values are means±s.d. Probe-binding was with pre-formed liposomes (2.3 mM Pi) and 100 nM CF or 0.2 nM (tyr^10 -^125 I)VIP mixed with 100 nM unlabeled peptide. Encapsulation was by making liposomes from lipid solutions (2.6 mM Pi) containing 2.5 μM CF or 1.7 nM (Tyr^10 -^125 I)VIP mixed with 2.5 μM unlabeled VIP. Free probes were removed by three washes with 50 mM HEPES, pH 7.3, containing 0.5% BSA. CF values were determined by fluorimetry after solubilization of liposomes, and VIP values, by measurement of liposome-associated radioactivity.
FIG. 5 illustrates the results of the competitive inhibition of binding of (Tyr^10-^125)VIP (0.26 nM) by the liposomes (2.4 mM Pi) by unlabeled VIP (10 nM-1 mM). Data are means±s.d expressed as % of available radiolabeled peptide. […]

[1] = Release (leakage) of VIP from liposomes stored in buffer; type: physicochemical; conditions: stored in buffer at 4° C. for 14 days
Protocol: The release of VIP from the liposomes was determined as follows.
The peptide release from liposomes containing (tyr^10 -^125 I)VIP, approximately 20,000 cpm, kept at 4° C. in 50 mM HEPES, pH 7.3, containing 0.02% […] was determined by centrifugation of aliquots of the suspension at 12,400×g for 15 minutes and measurement of radioactivity in the supernatants.

[2] = tested on: hamster check pouch microcirculation; assay: Untoward effects and leaky sites in check pouch microcirculation; type: in vivo; conditions: i.v. infusion in hamsters
Protocol: (§3) The animals were kept on a heated pad throughout the duration of the experiment. Arterial blood pressure was recorded continuously using a pressure transducer and a strip-chart recorder (Model 7702B, Hewlett-Packard). The microcirculation of the hamster check pouch was visualized using intravital microscopy and clearance of fluorescein isothiocyanic-dextran (M.W.=70 RD; Sigma) from postcapillary venules and determined as described in W. G. Mayhan and I. Rubinstein, J. Appl. Physiol., 75, pp. 27-32 (1993).
(§4) The number of leaky sites in check pouch microcirculation was determined every minute throughout the duration of the experiments as disclosed in W. G. Mayhan, Supra. The data is expressed as means±SEM. Students t-test for unpaired observations was used to compare responses to vasoactive intestinal peptide. A p value<0.05 was considered to be significant.

[3] = tested on: male golden Syrian hamsters; assay: Hypotensive effect (mean arterial blood pressure) in anesthetized hamsters; type: in vivo, hamster
Protocol: The hamsters were first prepared by anesthetizing intravenously 6 mg of sodium pentobarbital per 100 g of body weight. A tracheostomy was then performed to facilitate spontaneous breathing. Supplemental anesthesia was administered intravenously as necessary at 2-4 mg/100 g body weight/hour. A femoral artery was cannulated for blood pressure monitoring. A femoral vein was cannulated for drug and florescent tracer administration.
as §3
In each hamster, 1 ml aliquots of increasing concentrations of VIP dissolved in 0.15M sodium chloride or encapsulated in liposomes (1 nmol VIP/0.12 μmol phospholipids) were infused intravenously for 7 minutes.
Mean arterial blood pressure was recorded before, during, and for 60 minutes after administration of each concentration of the peptide.
as §4
The effect on blood pressure was determined by measuring the magnitude of reduction in mean arterial blood pressure (MAP) as a function of time following infusion of VIP dissolved in saline or encapsulated in liposomes.

PC/PG liposomes = assay: Binding of VIP by liposomes without cholesterol (PC/PG); conditions: PC/PG liposomes (no cholesterol)
[4] = Release of liposome-bound VIP by solvent treatments (Table 2); type: physicochemical; conditions: twice 1 ml for 10 min, 23° C.
Protocol: Lipid liposomes (4 mM Pi) were permitted to bind (Tyr^10 -^125 I)VIP (1 nM), washed extensively to remove unbound radioactivity and then treated twice with 1 ml of the indicated solutions for 10 min (23° C.). Released radioactivity was determined in the pooled supernatant obtained by centrifugation. Values are % of initial liposome-bound radioactivity (76,300 CPM), corrected for peptide release in control incubations performed in 50 mM HEPES, pH 7.3 (4.2±3.4%).

[5] = Encapsulation of probes by making liposomes in their presence (Table 1); type: physicochemical; conditions: liposomes made from lipid solutions 2.6 mM Pi containing 2.5 μM probe
Protocol: as §2

PC/CH liposomes = assay: Binding of VIP by electrically neutral liposomes (PC/CH); conditions: VIP 100 nM
Protocol: as §1
The binding of VIP (100 nM) by electrically neutral and negative liposomes prepared from PC/CH and PG/PC/CH, respectively, was compared. In each case, the levels of peptide binding increased within increasing concentration of the liposomes. The values of % VIP bound±s.d./μmol Pi were, PG/PC/CH liposomes, 26.2+3.4; PC/CH liposomes, 12.6±1.5. […] The inclusion of cholesterol, an agent that can be expected to decrease bilayer fluidity at the temperatures used in this study, as reported in Demel, R. A. and DeKruyff, B. (1976) Biochim. Biophys.

[6] = molecular target: (tyr^10 -^125 I)VIP (radioiodinated synthetic vasoactive intestinal polypeptide)
[7] = pre-formed liposomes 2.3 mM Pi, 100 nM CF or 0.2 nM tracer with 100 nM unlabeled VIP

- binding of radiolabeled VIP by liposomes, % of available peptide (PG/PC/CH liposomes): up to 56.6%
- binding of radiolabeled VIP by liposomes, % of available peptide (PG/PC/CH liposomes; listed as radiolabeled VIP): up to 60%
Substance: (tyr^10 -^125 I)VIP: VIP radioiodinated at tyrosine 10, used as tracer (HSDAVFTDNY(125I)TRLLRKQMAVKKYLNSILN-NH2)
- leakage of (tyr10-125I)VIP from the liposomes [1]: < 2 % of available radioactivity

- apparent binding capacity at saturating VIP concentrations (PG/PC/CH liposomes): 1 mol VIP/12.5 mol phospholipid
- IC50 (PG/PC/CH liposomes; 0.26 nM tracer, liposomes 2.4 mM Pi, read-out: IC50, competitive inhibition of partitioning of (Tyr10-125I)VIP into liposomes): 560 µM
- % VIP bound/μmol Pi (PG/PC/CH liposomes; VIP 100 nM, PG/PC/CH liposomes): 26.2 ± 3.4% and 26.2%
- partition constant derived from the binding isotherm (PG/PC/CH liposomes; nominal value, neutral pH): 1400 M⁻¹
- Binding (PG/PC/CH liposomes; [7]): 20.5 ± 1.0 nM
- % VIP bound/μmole Pi (PC/PG liposomes): 24.9%
- % VIP bound/μmol Pi (PC/CH liposomes): 12.6±1.5%
Substance: HSDAVFTDNYTRLLRKQMAVKKYLNSILN-NH2 (not fully specified (residue 10); printed as HSDAVFTDNYTRLLRKQMAVKKYLNSILN-NH2) [VIP, synthetic 28-amino acid neuropeptide; conventional VIP solution used as comparator]
- untoward effects during infusion [2]: did not display detectable untoward effects
- decrease in MAP ([3]; 1 nmole per hamster): weak and transient decrease in MAP
- time at which a significant decrease in MAP was observed ([3]; 1 nmole per hamster, i.v. infusion 7 minutes): 5 min
- MAP values for treated animals (FIG. 2 legend, apparently baseline) ([3]; 1.0 nmole, 7 minutes i.v. infusion, n=5): 93.0 mm Hg
- return of arterial blood pressure to pre-infusion baseline ([3]; 1 nmole, FIG. 2): 9 min
- reversibility of the hypotensive effect ([3]; hamster, in vivo): fully reversible
- % VIP released ([4]; 1 mM HCl): 3.0 ± 3.5%
- % VIP released ([4]; 1 mM NaOH): 15.9 ± 4.0%
- % VIP released ([4]; 25 mM EDTA): 8.1 ± 10.0%
- % VIP released ([4]; 1% SDS): 81.1 ± 9.6%
- % VIP released ([4]; 1 M NaCl): 2.7 ± 3.0%
- Encapsulation [5]: 37.5 ± 5.0 nM

- Binding (PG/PC/CH liposomes; [7]): 0.01 ± 0.001 nM
- Binding, nM (PG/PC/CH liposomes; pre-formed liposomes 2.3 mM Pi, 100 nM CF or 0.2 nM tracer with 100 nM unlabeled VIP, listed as carboxyfluorescein): very small amounts
- Encapsulation [5]: 82.5 ± 7.5 nM
Substance: carboxyfluorescein [CF]

- peptide hydrolysis (trichloroacetic acid-soluble radioactivity of (tyr^10 -^125 I)VIP) [6]: 80 % digested
Substance: trypsin from bovine pancreas (Sigma) (from UniProt P00760) (enzyme)
